Values quoted from earlier work, collected in patent US20200215149A1, “N-Phenylacetyl-L-prolylglycine ethyl ester compositions and methods for using the same” (priority 2019, published 2020).
Where two headings read alike, the source gives them in different places. Where a SMILES comes first, the peptide text is derived from it. The star is where a group is joined. PhAc = O=C(Cc1ccccc1)*

How the values were obtained:
[1] = ratio versus piracetam; Neznamov and Teleshova (2009)
[2] = Ostrovskaya, et al. (2008); Hayakawa, et al. (2007)

SMILES	side effects (healthy human subjects, compared with piracetam, Neznamov and Teleshova (2009))	effective dose, times smaller in mass than the effective dose of piracetam [1]	tolerance or addiction [2]	side effects (humans who consume effective doses of CBD, Bergamaschi, et al. (2011))
CCOC(=O)CNC(=O)[C@@H]1CCCN1C(=O)Cc1ccccc1 [noopept, N-Phenylacetyl-L-prolylglycine ethyl ester] (PhAc-Pro-Gly-OEt)	fewer side effects	over 50 times	neither noopept nor CBD has been shown to cause the user to become tolerant or addicted	–
C=C(C)[C@@H]1CCC(C)=C[C@H]1c1c(O)cc(CCCCC)cc1O [CBD, cannabidiol]	–	–	neither noopept nor CBD has been shown to cause the user to become tolerant or addicted	generally does not cause significant side effects
